Assay results from patent US12077503B2, “Substituted cyclic amides and their use as herbicides” (FMC CORPORATION, priority 2015, dated 2024).

How the values were obtained:
Format in all cases: in vivo
[1] = system: velvetleaf (Abutilon theophrasti); assay: Test G Post-Emergence Protocol; details: Abutilon theophrasti, post-emergence, 312 h, read-out: Velvetleaf damage rating
Summary of the method: (§1)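 Values are percent visual injury at 13 days after treatment (0 none, 100 total). Treatment was a post-emergence spray at 15.625, 62.5 or 250 g/ha on 8-day-old pot plants kept at 24/16 °C.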

[2] = system: ivy-leaved morning glory (Ipomoea hederacea); assay: Test G Post-Emergence Protocol; details: Ipomoea, post-emergence, 312 h, read-out: Morningglory, Ivy-leaved damage rating
Summary of the method: as §1

[3] = system: barnyardgrass (Echinochloa crus-galli); assay: Test G Post-Emergence Protocol; details: Echinochloa crus-galli, post-emergence, 312 h, read-out: Barnyardgrass damage rating
Summary of the method: as §1

[4] = system: redroot pigweed (Amaranthus retroflexus); assay: Test G Post-Emergence Protocol; details: Amaranthus retroflexus, post-emergence, 312 h, read-out: Pigweed, Redroot damage rating
Summary of the method: as §1

[5] = system: giant foxtail (Setaria faberi); assay: Test G Post-Emergence Protocol; details: Setaria faberi, post-emergence, 312 h, read-out: Foxtail, Giant damage rating
Summary of the method: as §1

corn (Zea mays) [6] = assay: Test G Post-Emergence Protocol; details: Zea mays, post-emergence, 312 h, read-out: Corn damage rating
Summary of the method: as §1

[7] = system: velvetleaf (Abutilon theophrasti); assay: Test G Pre-Emergence Protocol; details: Abutilon theophrasti, pre-emergence, 312 h, evaluated after 13 days
Summary of the method: (§2)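 Glasshouse pre-emergence test: soil-sown seeds, sprayed after 1 d at 15.625, 62.5 or 250 g/ha. Conditions 24/16° C day/night, 14 h light, 65% humidity, watering twice daily. Rating 13 d post-spray (100 = total damage).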

[8] = system: ivy-leaved morning glory (Ipomoea hederacea); assay: Test G Pre-Emergence Protocol; details: Ipomoea, pre-emergence, 312 h, evaluated after 13 days
Summary of the method: as §2

[9] = system: barnyardgrass (Echinochloa crus-galli); assay: Test G Pre-Emergence Protocol; details: Echinochloa crus-galli, pre-emergence, 312 h, evaluated after 13 days
Summary of the method: as §2

[10] = system: redroot pigweed (Amaranthus retroflexus); assay: Test G Pre-Emergence Protocol; details: Amaranthus retroflexus, pre-emergence, 312 h, evaluated after 13 days
Summary of the method: as §2

[11] = system: giant foxtail (Setaria faberi); assay: Test G Pre-Emergence Protocol; details: Setaria faberi, pre-emergence, 312 h, evaluated after 13 days
Summary of the method: as §2

corn (Zea mays) [12] = assay: Test G Pre-Emergence Protocol; details: Zea mays, pre-emergence, 312 h, evaluated after 13 days
Summary of the method: as §2

[13] = 15.625 g ai/ha, evaluated after 13 days (100=total damage to plant; 0=no damage to plant)
[14] = 62.5 g ai/ha, evaluated after 13 days, 100=total damage to plant, 0=no damage to plant
[15] = 250 g ai/ha, evaluated after 13 days, 100=total damage to plant, 0=no damage to plant

CCOc1cc(C2CN(C)C(=O)C2C(=O)Nc2cccc(F)c2F)cc(C(F)(F)F)c1 (stereo not drawn) [Compound 1696]
pest or weed control at 15.625 g/ha [1, 13]: 0%
pest or weed control at 62.5 g/ha [1, 14]: 0%
pest or weed control at 250 g/ha [1, 15]: 10%
pest or weed control at 15.625 g/ha [2, 13]: 20%
pest or weed control at 62.5 g/ha [2, 14]: 60%
pest or weed control at 250 g/ha [2, 15]: 60%
pest or weed control at 15.625 g/ha [3, 13]: 40%
pest or weed control at 62.5 g/ha [3, 14]: 70%
pest or weed control at 250 g/ha [3, 15]: 80%
pest or weed control at 15.625 g/ha [4, 13]: 70%
pest or weed control at 62.5 g/ha [4, 14]: 50%
pest or weed control at 250 g/ha [4, 15]: 60%
pest or weed control at 15.625 g/ha [5, 13]: 70%
pest or weed control at 62.5 g/ha [5, 14]: 80%
pest or weed control at 250 g/ha [5, 15]: 80%
plant injury at 15.625 g/ha (corn (Zea mays) [6]; [13]): 50%
plant injury at 62.5 g/ha (corn (Zea mays) [6]; [14]): 70%
plant injury at 250 g/ha (corn (Zea mays) [6]; [15]): 70%
pest or weed control at 15.625 g/ha ([7]; 15.625 g ai/ha, read-out: Velvetleaf damage rating (100=total damage to plant; 0=no damage to plant)): 10%
pest or weed control at 62.5 g/ha ([7]; 62.5 g ai/ha, 100=total damage to plant, 0=no damage to plant, read-out: Velvetleaf damage rating): 0%
pest or weed control at 250 g/ha ([7]; 250 g ai/ha, read-out: Velvetleaf damage rating (100=total damage to plant; 0=no damage to plant)): 0%
pest or weed control at 15.625 g/ha ([8]; 15.625 g ai/ha, read-out: Morningglory, Ivy-leaved damage rating (100=total damage to plant; 0=no damage to plant)): 10%
pest or weed control at 62.5 g/ha ([8]; 62.5 g ai/ha, 100=total damage to plant, 0=no damage to plant, read-out: Morningglory, Ivy-leaved damage rating): 10%
pest or weed control at 250 g/ha ([8]; 250 g ai/ha, read-out: Morningglory, Ivy-leaved damage rating (100=total damage to plant; 0=no damage to plant)): 20%
pest or weed control at 15.625 g/ha ([9]; 15.625 g ai/ha, read-out: Barnyardgrass damage rating (100=total damage to plant; 0=no damage to plant)): 10%
pest or weed control at 62.5 g/ha ([9]; 62.5 g ai/ha, 100=total damage to plant, 0=no damage to plant, read-out: Barnyardgrass damage rating): 70%
pest or weed control at 250 g/ha ([9]; 250 g ai/ha, read-out: Barnyardgrass damage rating (100=total damage to plant; 0=no damage to plant)): 80%
pest or weed control at 15.625 g/ha ([10]; 15.625 g ai/ha, read-out: Pigweed, Redroot damage rating (100=total damage to plant; 0=no damage to plant)): 20%
pest or weed control at 62.5 g/ha ([10]; 62.5 g ai/ha, 100=total damage to plant, 0=no damage to plant, read-out: Pigweed, Redroot damage rating): 0%
pest or weed control at 250 g/ha ([10]; 250 g ai/ha, read-out: Pigweed, Redroot damage rating (100=total damage to plant; 0=no damage to plant)): 20%
pest or weed control at 15.625 g/ha ([11]; 15.625 g ai/ha, read-out: Foxtail, Giant damage rating (100=total damage to plant; 0=no damage to plant)): 60%
pest or weed control at 62.5 g/ha ([11]; 62.5 g ai/ha, 100=total damage to plant, 0=no damage to plant, read-out: Foxtail, Giant damage rating): 80%
pest or weed control at 250 g/ha ([11]; 250 g ai/ha, read-out: Foxtail, Giant damage rating (100=total damage to plant; 0=no damage to plant)): 90%
plant injury at 15.625 g/ha (corn (Zea mays) [12]; 15.625 g ai/ha, read-out: Corn damage rating (100=total damage to plant; 0=no damage to plant)): 0%
plant injury at 62.5 g/ha (corn (Zea mays) [12]; 62.5 g ai/ha, 100=total damage to plant, 0=no damage to plant, read-out: Corn damage rating): 40%
plant injury at 250 g/ha (corn (Zea mays) [12]; 250 g ai/ha, read-out: Corn damage rating (100=total damage to plant; 0=no damage to plant)): 50%
